What was measured:
gastric juice secretion [1] = test: Anti-gastric juice secretion test, intraduodenal administration (pylorus ligation); type: in vivo, Crj:Wistar rat (male); details: 100 mg/kg intraduodenal, 4 h after pylorus ligation; for pH of gastric juice: control 1.7; for Amount of gastric juice: control 2.6; for Free hydrochloric acid: control 116; for Total acidity: control 168
Protocol: Each 100 mg/kg of the test compounds was administered duodenally to a male Crj:Wistar rat of 205 to 240 g body weight fasted for ca. 24 hours (7 to 8 rats per group) and immediately after the dose the pylorus was ligated under diethyl ether anesthesia. Four hours after the ligation, the animal was killed and the stomach was isolated and the amount and the pH of gastric juice and free hydrochloric acid contained in it and the total acidity of it were measured to examine the effect of inhibiting gastric juice secretion. The test compounds were dosed after dissolved in physiological saline or in physiological saline containing Tween 80 added. Five […] of physiological saline was administered to the control group.

aspirin ulcer [2] = test: Anti-aspirin ulcer test, oral administration; type: in vivo, Crj:Wistar rat (male); details: 100 mg/kg oral; for Gastric damage index: 30 min before aspirin 200 mg/kg oral, control 76.0; for Gastric damage index / inhibition in vivo at 100 mg/kg: 6 h; for inhibition in vivo at 100 mg/kg: Rattus norvegicus, read-out: Inhibition rate
Protocol: (§1) Each 100 mg/kg of the test compounds was administered orally to a male Crj:Wistar rat of 198 to 243 g body weight fasted for ca. 24 hours (7 to 8 rats per group) and 30 minutes after the administration 200 mg/5 ml/kg of aspirin suspended in 0.5% sodium CMC aqueous solution was administered orally. Six hours later the animals was killed by exsanguination and the cardia part of stomach was ligated and 10 ml of 1% formaline solution was poured into the stomach and the stomach was extirpated. Then, it was incised along the greater curvature side and washed with physiological saline and the major axis of the spotted and linear erosion and ulcer were measured under a steromicroscope and their total sum per head was calculated as the gastric damage index (mm) and the effect was judged by the inhibiting rate against the control group [(Gastric damage index of the control group-Gastric damage index of the test compound)/Gastric damage index of the control group×100]. 0.5 ml/body weight of 1% pontamine sky blue physiological saline was injected intravenously 10 minutes before the slaughter. The test compound was administered after dissolved in physiological saline or in physiological saline containing Tween 80 added. Five […] of physiological saline was administered to the control group.

[3] = tested on: water immersion restriction stress ulcer; test: Water immersion restriction stress ulcer, oral administration; type: in vivo, Crj:Wistar rat (male); details: 100 mg/kg oral; for Gastric damage index: 30 min before 6 h water immersion stress, control 15.7; for inhibition in vivo at 100 mg/kg: Rattus norvegicus, 6 h, read-out: Inhibition rate
Protocol: (§2) After the stress loading, the animal was killed by exsanguination and the cardia part of stomach was ligated and then 10 ml of 1% formalin was poured into the stomach and the stomach was extirpated. […] 0.5 ml/body weight of 1% pontamine sky blue physiological saline was injected intravenously 10 minutes before the slaughter. The test compound was administered after dissolved in physiological saline or in physiological saline containing Tween 80 added. Five […] of physiological saline was administered to the control group.

[4] = Acute toxicity, oral administration; type: in vivo, Sle:ICR mouse (male); details: 300 mg/kg oral, 6 hours observation; for Mortality rate: deaths/mice
Protocol: (§3) Each test compound was administered to a male Sle:ICR mouse of 29 to 32 g body weight fasted for 18 to 20 hours (5 mice per group) to examine the presence of acute toxicity.

gastric juice secretion [5] = test: Anti-gastric juice secretion test, intraperitoneal administration (pylorus ligation); type: in vivo, Crj:Wistar rat (male); details: 100 mg/kg intraperitoneal, 30 min before pylorus ligation; for pH of gastric juice: control 1.7; for Amount of gastric juice: control 3.2; for Free hydrochloric acid: control 155; for Total acidity: control 208
aspirin ulcer [6] = test: Anti-aspirin ulcer test, intraperitoneal administration; type: in vivo, Crj:Wistar rat (male); details: for Gastric damage index: 100 mg/kg intraperitoneal (abdominally injected), control 58.8; for Inhibition rate: gastric damage index vs control, 100 mg/kg intraperitoneal
Protocol: as §1
Each 100 mg/kg of the test compound was abdominally injected to a male Crj:Wistar rat of 210 to 265 g body weight fasted for ca. 24 hours (7 to 8 rats per group) and the procedures were carried out in a same manner as in oral administration.

[7] = tested on: water immersion restriction stress ulcer; test: Water immersion restriction stress ulcer, intraperitoneal administration; type: in vivo, Crj:Wistar rat (male); details: 100 mg/kg intraperitoneal; for Gastric damage index: control 22.7; for Inhibition rate: gastric damage index vs control
Protocol: as §2

[8] = Acute toxicity, intraperitoneal administration; type: in vivo, Sle:ICR mouse (male); details: 200 mg/kg intraperitoneal, 6 hours observation; for Mortality rate: deaths/mice
Protocol: as §3

[9] = gastric damage index vs control, aspirin 200 mg/kg
[10] = gastric damage index vs control, water immersion stress

Compound | pH of gastric juice (gastric juice secretion [1]) | Amount of gastric juice (gastric juice secretion [1]) | Free hydrochloric acid (gastric juice secretion [1]) | Total acidity (gastric juice secretion [1]) | Gastric damage index (aspirin ulcer [2]) | inhibition in vivo at 100 mg/kg (aspirin ulcer [2]; [9]) | Gastric damage index [3] | inhibition in vivo at 100 mg/kg [3, 10] | General condition [4] | Mortality rate [4] | pH of gastric juice (gastric juice secretion [5]) | Amount of gastric juice (gastric juice secretion [5]) | Free hydrochloric acid (gastric juice secretion [5]) | Total acidity (gastric juice secretion [5]) | Gastric damage index (aspirin ulcer [6]) | Inhibition rate (aspirin ulcer [6]) | Gastric damage index [7] | Inhibition rate [7] | General condition [8] | Mortality rate [8] | further results
CN(C(Cc1ccc(O)cc1)CN1CCN(C(=O)OCc2ccccc2)CC1)S(=O)(=O)c1cccc2cnccc12 (stereo not drawn) [(4), N-[2-(4-benzyloxycarbonylpiperazinyl)-1-(p-hydroxybenzyl)ethyl]-N-methyl-5-isoquinoline sulfonamide] | 2.3 | 1.8 ml/100 g body weight | 36 μEq/100 g body weight | 74 μEq/100 g body weight | 34.6 mm | 55% | 8.4 mm | 46% | No abnormality | 0/5 | – | – | – | – | – | – | – | – | – | – | –
COc1ccc(CC(CN2CCCN(C(=O)OCc3ccccc3)CC2)N(CCN(C)C)S(=O)(=O)c2cccc3cnccc23)cc1 (stereo not drawn) [(16), N-[2-(4-benzyloxycarbonylhomopiperazinyl)-1-(p-methoxybenzyl)ethyl]-N-(2-dimethylaminoethyl)-5-isoquinoline sulfonamide] | 2.9 | 0.9 ml/100 g body weight | 11 μEq/100 g body weight | 29 μEq/100 g body weight | 17.0 mm | 78% | 4.6 mm | 70% | No abnormality | 0/5 | 2.9 | 0.6 ml/100 g body weight | 8 μEq/100 body weight | 24 μEq/100 body weight | 10.6 mm | 82% | 5.4 mm | 76% | No abnormality | 0/5 | –
COc1ccc(CC(CN2CCN(C(=O)OCc3ccccc3)CC2)N(C)S(=O)(=O)c2cccc3cnccc23)cc1 (stereo not drawn) [(5), N-[2-(4-benzyloxycarbonylpiperazinyl)-1-(p-methoxybenzyl)ethyl]-N-methyl-5-isoquinoline sulfonamide] | 2.3 | 1.8 ml/100 g body weight | 48 μEq/100 g body weight | 80 μEq/100 g body weight | 36.5 mm | 53% | 7.7 mm | 51% | No abnormality | 0/5 | – | – | – | – | – | – | – | – | – | – | –
COc1ccc(CC(CN2CCCN(C(=O)OCc3ccccc3)CC2)N(CCN)S(=O)(=O)c2cccc3cnccc23)cc1 (stereo not drawn) [(15), N-[2-(4-benzyloxycarbonylhomopiperazinyl)-1-(p-methoxybenzyl)ethyl]-N-(2-aminoethyl)-5-isoquinoline sulfonamide] | 2.6 | 1.1 ml/100 g body weight | 22 μEq/100 g body weight | 43 μEq/100 g body weight | 35.8 mm | – | 6.6 mm | – | – | 0/5 | 2.6 | 1.3 ml/100 g body weight | 36 μEq/100 body weight | 74 μEq/100 body weight | 11.8 mm | 80% | 6.6 mm | 71% | – | 0/5 | Inhibition rate (aspirin ulcer [2]; [9]): 64%; Inhibition rate [3, 10]: 58%
CN(C(Cc1ccc(O)cc1)CN1CCCN(C(=O)OCc2ccccc2)CC1)S(=O)(=O)c1cccc2cnccc12 (stereo not drawn) [(14), N-[2-(4-benzyloxycarbonylhomopiperazinyl)-1-(p-hydroxybenzyl)ethyl]-N-methyl-5-isoquinoline sulfonamide] | 3.1 | 0.6 ml/100 g body weight | 8 μEq/100 g body weight | 11 μEq/100 g body weight | 11.2 mm | 85% | 4.3 mm | 73% | No abnormality | 0/5 | 3.0 | 0.6 ml/100 g body weight | 4 μEq/100 body weight | 17 μEq/100 body weight | 5.3 mm | 91% | 3.9 mm | 83% | No abnormality | 0/5 | –

Reference: patent US5244895A, “Anti-ulcer agent” (Hidaka; Hiroyoshi, priority 1991, dated 1993)
